{"source": "patent US9889135B2", "about": "“Companion diagnostic for CDK4 inhibitors” (Memorial Sloan-Kettering Cancer Center, priority 2013, dated 2018)", "key": {"[1]": {"system": "seven RB-positive patient derived WD/DDLS cell lines", "experiment": "BrdU incorporation in liposarcoma cell lines", "format": "cell-based, human", "conditions": "asynchronously growing cells, 48 hours", "method": "FIG. 1A-C. […] Mean percentage of BrdU incorporation or annexin V+/7-AAD− cells was calculated from three or more independent experiments. Error bars represent standard deviation (*p<0.05).\nCell lines were developed from WD/DDLS tumors resected from surgical patients after obtaining informed consent. LS8817 and LS0082 have previously been described using the nomenclature DDLS8817 and WD0082. DNA was extracted from cell lines using standard protocols (QIAGEN DNEasy) and lineage confirmed by copy number array to confirm amplification of segment 12q13-15 (Agilent 244K according to manufacturer's specifications). Analysis of comparative genomic hybridization data was performed using a custom pipeline, which conducts the standard circular binary segmentation from the R/bioconductor DNA copy library and processes all samples with the RAE algorithm (47). […]\nshRNA were delivered in the pLKO.1 vector (Sigma) and infected cells selected using puromycin (1 μg/ml); infection with a virus carrying a scramble control ([…]) was used as a control in all experiments utilizing shRNA. […] G0 content was determined by staining with propidium iodine and FACS analyses (49).\nCells were stained with BrdU (20 μM for two hours) or annexin V as previously described (22, 48). […] was determined by staining with propidium iodine and FACS analyses (49)."}, "[2]": {"system": "LS8817, LS141 and LS0082 cells", "experiment": "SA-β-gal and SAHF (HP1γ) senescence staining, responder lines", "format": "cell-based, human", "from_the_text": "Mean percentage standard deviation). […] (A) Senescence-associated β-galactosidase and (B) HP1γ staining for senescence associated heterochromatic foci (SAHF) formation was quantitated for three or more independent experiments for each cell line. […] Representative phase contrast micrographs of cells stained for SA-β-gal or immunofluorescence staining for HP1γ in two of the cell lines before (ctrl) and after (PD) drug treatment are shown in the insets of FIGS. 2A and 2B, respectively. (C) BrdU incorporation. […] Error bars represent the standard deviation of the mean calculated from three independent trials. […] Cell number was quantitated by DAPI staining and β-galactosidase staining quantitated as a proportion of total cells. Senescence associated heterochromatic foci were quantitated after cells were fixed with 4% paraformaldehyde, permeabilized with 0.1% Triton, blocked with 2% FBS, and stained with antibodies against HP1γ (1:5000 dilution, 2MOD-1G6 Millipore). Senescent cells were identified by immunofluorescence after treatment of slides with anti-mouse secondary antibodies and quantitation of focal SAHF as a percent of total cells (Leica Upright Confocal SP5 confocal microscope). […] Cell area was measured by with Metamorph software to calculate relative area per cell."}, "[3]": {"system": "MDM2 in LS8107 and LS7785-1 cells", "experiment": "MDM2 levels by immunoblot, non-responder cells", "format": "cell-based, human", "conditions": "non-responders LS8107 and LS7785-1; two days", "method": "(A) Immunoblot. […] Tubulin was a loading control. (B) Immunoblot.\nAntibodies against CDK4 (3F121), MDM2 (N-20 and SMP14), total RB (IF8), Cyclin A (H432), p16 (C20), p53 (DO-1 and Bp53-12), tubulin (C20) and FLAG (M2) were obtained from Santa Cruz Biotechnology, phospho-Rb 780 (#9307) from Cell Signalling, and ARF (3642) from Abeam, HAUSP (A300-033A) from Bethyl Laboratories. Treated cells were lysed with buffer composed of 50 mM Tris-HCl, pH7.4, 250 mM NaCl, 5 mM EDTA, 0.5% NP40, 2 mM PMSF, and supplemented with protease inhibitors. Eighty micrograms of protein were resolved by SDS-PAGE and transferred to PVDF membranes. Membranes were incubated overnight with antibodies (1:1000). […] Pre-treatment biopsies were collected within two weeks of the first dose and post-treatment biopsies collected after at last three weeks of treatment. Extracts were prepared in 50 mM Tris-HCl, pH7.4, 150 mM NaCl, 1 mM EDTA, 1% NP40, 0.25% sodium deoxycholate and supplemented with mini-protease inhibitor cocktail (Roche). Tumor response was assessed by reference radiologist by CT scan every six weeks for 36 weeks, and every 12 weeks thereafter."}, "[4]": {"system": "Glioma (U87MG, U251, SNB19, DBTRG-05MG) and breast cancer (MDA453, T47D, ZR-75-1, and MCF7) cells", "experiment": "SA-β-gal senescence in glioma and breast cancer cell lines", "format": "cell-based", "conditions": "eight cell lines, some p53 and/or INK4 mutant", "from_the_text": "FIG. 19A-C. Senescence associated with the downregulation of MDM2 is p53 and INK4 independent. […] This experiment was repeated three times with similar results in both LS8817 and LS141. […] The p53 mutational status of these cell lines (WT, wild type; R273H and L194F, missense mutations; if-DEL, in-frame deletion of 30 nucleotides at amino acid 368) were obtained from the p53 mutation database and the RIKEN bioresource databank and is consistent with the detection of p21 by immunoblot. (C) SNB19 cells, a p53 mutant and INK4A deficient cell, was transduced with the mutants described in panel A and their effect on senescence determined.\nCells were plated at a concentration of 25,000 per well in a 4-well chamber slides (Lab-Tek) and treated for seven days with drug and stained for senescence-associated β-galactosidase (Cell Signaling kit #9860). Cell number was quantitated by DAPI staining and β-galactosidase staining quantitated as a proportion of total cells."}, "RB-positive WD/DDLS": {"system": "RB-positive WD/DDLS", "conditions": "two patients with RB-positive WD/DDLS; cited from earlier work"}}}
{"molecule": "CC(=O)c1c(C)c2cnc(Nc3ccc(N4CCNCC4)cn3)nc2n(C2CCCC2)c1=O", "note": "[PD0332991]", "values": [{"measurement": "incorporation of bromodeoxyuridine (BrdU)", "setting": "[1]", "result": "significant reduction"}, {"measurement": "number of SA-β-gal or SAHF positive cells", "setting": "[2]; seven days after exposure", "result": "significant increase"}, {"measurement": "concentration giving a significant increase in SA-β-gal or SAHF positive cells", "setting": "[2]; seven days, concentrations as low as", "result": "≤ 100", "unit": "nM"}, {"measurement": "MDM2 reduction", "setting": "[3]", "result": "not"}, {"measurement": "senescence as measured by accumulation of SA-β-gal", "setting": "[4]", "result": "All of the cell lines underwent senescence"}, {"measurement": "clinical response", "setting": "RB-positive WD/DDLS", "result": "prolonged stable disease lasting several years"}]}
